# Measured values as given in patent US20060004095A1, “Use of acetyl L-carnitine for the preparation of a medicine for the treatment of neuropathic pain in diabetic patients” (priority 2004, published 2006).
# Legend:
# [1] = system: type I and II diabetics with symmetrical distal polyneuropathy or multineuropathy; conditions: patients treated with acetyl L-carnitine out of 333 recruited; cited from earlier work
# [2] = system: patients with type 2 diabetes on insulin treatment; test: Double-blind placebo-controlled clinical trials in diabetic peripheral neuropathy, VAS pain assessment; population on insulin; assay type: in vivo, human; conditions: even at the higher dose
# Description: (§1) Two double-blind placebo-controlled clinical trials, identical in their experimental design, were conducted in patients with diagnoses of diabetic peripheral neuropathy selected according to the criteria established in the San Antonio, Tex. conference (Diabetes 37:1000-1004, 1988).
# (§2) Acetyl L-carnitine was administered orally at doses of 1.5 g/day and 3.0 g/day for continuously for 52 weeks.
# (§3) One objective of the studies consisted in the possible modification of the Visual Analogue Scale (VAS) (Scott J. Huskisson EC. Graphic representation of pain. Pain 1976;2:175-184) in the subjective assessment of pain symptoms and the main sensorimotor clinical parameters.
# The second population comprised patients with type 2 diabetes treated with insulin. Here, too, the population included a placebo group (Group 4) matching up to the same inclusion criteria as the patients treated with acetyl L-carnitine (on insulin treatment).
# [3] = system: patients with type 2 diabetes not on insulin treatment; test: Double-blind placebo-controlled clinical trials in diabetic peripheral neuropathy, VAS pain assessment; population not on insulin; assay type: in vivo, human; conditions: active only at the higher dose (3 g/day)
# Description: as §1, §2, §3
smiles,measurement,setting,value
"CC(=O)O[C@H](CC(=O)[O-])C[N+](C)(C)C [Acetyl L-carnitine, acetyl L-carnitine]",patients presenting an improvement in pain symptoms,[1],39%
same,activity compared to the control group,[2],no statistically significant difference in activity
same,activity compared to the placebo group at the end of treatment,[3],active in a dose-related manner
